Source: patent publication US20050107386A1, “Methods of treating diseases and disorders by targeting multiple kinases” (priority 2003, published 2005)
Values belong to the compound of their own block, whether it stands above or below them.

Key:
[1] = biological target: T1, PKCμ(h) (Homo sapiens, UniProt Q15139); test: PKCμ(h) kinase assay; type: biochemical; details: 3 μM; percent of control kinase activity
T1 sequence (Q15139 1-912): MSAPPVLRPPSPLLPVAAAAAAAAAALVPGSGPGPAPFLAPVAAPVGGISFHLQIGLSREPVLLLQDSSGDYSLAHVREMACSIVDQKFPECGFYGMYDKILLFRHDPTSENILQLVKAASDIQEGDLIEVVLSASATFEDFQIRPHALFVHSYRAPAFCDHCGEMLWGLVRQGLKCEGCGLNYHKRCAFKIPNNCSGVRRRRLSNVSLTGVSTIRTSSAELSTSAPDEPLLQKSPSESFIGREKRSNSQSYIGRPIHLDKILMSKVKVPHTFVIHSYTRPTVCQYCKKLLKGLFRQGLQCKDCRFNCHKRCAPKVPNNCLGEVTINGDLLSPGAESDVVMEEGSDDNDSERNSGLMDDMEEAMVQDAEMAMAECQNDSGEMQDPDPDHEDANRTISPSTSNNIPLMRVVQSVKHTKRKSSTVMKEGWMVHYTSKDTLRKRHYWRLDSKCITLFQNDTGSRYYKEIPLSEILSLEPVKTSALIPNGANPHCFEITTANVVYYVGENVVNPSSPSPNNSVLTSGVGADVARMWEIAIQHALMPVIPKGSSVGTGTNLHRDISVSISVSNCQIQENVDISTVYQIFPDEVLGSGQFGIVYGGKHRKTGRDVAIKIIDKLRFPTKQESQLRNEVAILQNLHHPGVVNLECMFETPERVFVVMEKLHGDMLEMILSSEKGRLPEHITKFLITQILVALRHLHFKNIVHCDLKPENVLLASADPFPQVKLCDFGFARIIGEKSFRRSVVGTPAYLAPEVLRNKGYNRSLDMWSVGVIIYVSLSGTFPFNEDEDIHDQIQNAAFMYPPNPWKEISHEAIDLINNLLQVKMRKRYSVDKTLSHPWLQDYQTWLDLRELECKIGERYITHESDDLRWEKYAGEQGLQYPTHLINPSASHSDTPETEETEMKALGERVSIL
Method: (§1) Six compounds (presumptive single agents) were tested against a panel of 50 kinases. The results are presented in Table 2; numbers for each kinase indicate the percent of control kinase activity in the presence of a 3μM concentration of the indicated agent.
(§2) Agents that target two or more different kinases are useful in the methods of the invention as described elsewhere herein. Such compounds may be identified, and their effect on certain kinases may be identified, using the assays briefly described below in Examples 4-83. Each of these assays was carried out as described in Davies et al., Biochem. J., 351:95-105 (2000). All assays were carried out at 10 μM ATP unless otherwise noted.

[2] = biological target: T2, PKD2(h) (Homo sapiens, UniProt Q9BZL6); test: PKD2(h) kinase assay; type: biochemical; details: 3 μM; percent of control kinase activity
T2 sequence (Q9BZL6 1-878): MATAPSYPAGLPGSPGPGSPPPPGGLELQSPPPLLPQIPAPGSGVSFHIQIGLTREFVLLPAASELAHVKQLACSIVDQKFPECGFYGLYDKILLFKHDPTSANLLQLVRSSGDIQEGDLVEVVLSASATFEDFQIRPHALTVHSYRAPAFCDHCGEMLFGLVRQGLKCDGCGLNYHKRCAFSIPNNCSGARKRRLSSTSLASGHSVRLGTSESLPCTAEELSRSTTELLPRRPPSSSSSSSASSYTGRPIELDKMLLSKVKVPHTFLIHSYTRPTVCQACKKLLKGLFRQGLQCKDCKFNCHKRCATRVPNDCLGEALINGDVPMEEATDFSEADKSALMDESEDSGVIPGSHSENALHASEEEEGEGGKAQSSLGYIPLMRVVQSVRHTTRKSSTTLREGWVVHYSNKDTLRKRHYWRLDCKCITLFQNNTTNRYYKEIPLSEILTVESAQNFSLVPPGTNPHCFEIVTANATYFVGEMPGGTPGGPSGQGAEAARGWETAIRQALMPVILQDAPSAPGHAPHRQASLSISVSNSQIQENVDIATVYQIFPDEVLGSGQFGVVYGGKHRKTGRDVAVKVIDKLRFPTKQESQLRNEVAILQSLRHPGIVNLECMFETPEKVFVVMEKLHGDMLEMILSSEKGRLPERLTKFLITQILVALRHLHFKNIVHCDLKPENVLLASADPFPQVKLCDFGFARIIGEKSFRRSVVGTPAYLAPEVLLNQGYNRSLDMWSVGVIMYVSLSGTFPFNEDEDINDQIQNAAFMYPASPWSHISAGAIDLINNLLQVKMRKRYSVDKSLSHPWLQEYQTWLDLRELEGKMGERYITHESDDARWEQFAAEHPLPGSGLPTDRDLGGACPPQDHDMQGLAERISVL
Method: as §1, §2

[3] = system: HCT-116 colon cancer cells; test: Activation of kinases and their downstream targets in HCT-116 cells; type: cell-based; details: concentration-dependent
Text: (§3) CC001 is a low molecular weight mixed kinase inhibitor (MKI) with potent in vitro inhibitory activity against a variety of kinases.

[4] = system: cancer cell lines: non-small cell lung (NSCLC); colon; pancreatic; head and neck; breast and ovarian cancers; test: Antiproliferative activity against a broad spectrum of cancer cell lines; type: cell-based; details: each of the cancer cell line types
Text: as §3

[5] = system: cancer cell lines; test: In vitro combination studies with standard chemotherapeutic agents and signal transduction inhibitors; type: cell-based; details: with standard chemotherapeutic agents such as taxol, and novel signal transduction inhibitors
Text: as §3

[6] = system: colon and lung tumors; test: SCID mice bearing colon and lung tumors; type: in vivo, mouse; details: 10 mg/kg to 20mg/kg twice a day, single agent
Method: SCID mice bearing colon and lung tumors were treated with CC001 at a concentration of 10 mg/kg to 20mg/kg, administered twice a day.

[7] = system: NCI-H460 NSCLC xenograft; test: NCI-H460 NSCLC xenograft model; type: in vivo; details: CC001 combined with the maximum tolerated dose of Taxotere
Method: A similar study was performed using an NCI-H460 NSCLC xenograft model in which CC001 was combined with the maximum tolerated dose of Taxotere (an anti-cancer compound related to taxol). […]. […]

[8] = system: HCT-116 cells; test: SCID mouse/HCT-116 xenograft model; details: for % Tumor Growth Inhibition / T/C (ratio of mean tumor volume for treated vs. vehicle control) / Tumor Volume: day 28; for Tumor Volume: mean ± SEM
Method: In one experiment, female CB.17 SCID mice were inoculated subcutaneously in the right hind limb with 2×10^6 HCT-116 cells. […] Treatment commenced on day 8 and proceeded for the duration of the study. All the compound treatments were given i.p. in a vehicle NPS in a volume of 5 ml/kg. […] The tumor volumes were measured twice a week using calipers. Values are mean±SEM. Statistical analysis was performed using ANOVA.
Female CB.17 SCID mice were inoculated subcutaneously in the right hind limb with 2×10^6 HCT-116 cells. […] Treatment commenced on day 8 and proceeded for the duration of the study. All the treatments were given i.p. in a vehicle NPS in a volume of 5 ml/kg.
Female CB.17 SCID mice were inoculated subcutaneously in the right hind limb with 2×10^6 HCT-116 cells. […] Treatment commenced on day 8 and proceeded for the duration of the study. All the compound treatments were given i.p. in a vehicle NPS in a volume of 5 ml/kg. […] The tumor volumes were measured twice a week using calipers.

[9] = CC001 with Camptosar, model not named
[10] = Table 4, i.p. 20 mg/kg b.i.d. (b.i.d. day 8-11, then qd)

SMILES: COc1ccc2cc(-c3n[nH]c4ccc(-c5n[nH]c(CN6CCOCC6)n5)cc34)ccc2c1 [CC001, 3-(6-Methoxynaphthalen-2-yl)-5-(5-Morpholin-4-Ylmethyl-1H-[1,2,4]Triazol-3-yl)-1H-Indazole]
- Inhibitory activity (% of control), PKCμ(h) [1]: 6 % of control
- Inhibitory activity (% of control), PKD2(h) [2]: 14 % of control
- activation of kinases and their downstream targets [3]: inhibited the activation of kinases and their downstream targets
- antiproliferative activity, IC50 values [4]: nanomolar range
- antiproliferative activity in combination [5]: additive and/or synergistic antiproliferative activity
- T/C ratio [6]: 40-60%
- tumor growth, in words [6]: inhibited tumor growth in a dose-dependent manner
- T/C ratio [7]: 16-28%
- additional toxicity as evidenced by weight loss [7]: No apparent additional toxicity
- effect on tumor development, in words ([8]; CC001 at 20 mg/kg administered with 2.5 mg/kg Camptosar): equivalent to an administration of Camptosar alone at 10 mg/kg
- T/C ratio [8, 9]: ~15%
- in vivo effects in combination, in words [8, 9]: Additive in vivo effects
- TGD (days to reach 1000 mm^3) ([8]; Table 3, i.p. 20 mg/kg b.i.d.): >12 days
- % Tumor Growth Inhibition ([8]; Table 3, i.p. 20 mg/kg b.i.d.): 69.6%
- T/C (ratio of mean tumor volume for treated vs. vehicle control) ([8]; Table 3, i.p. 20 mg/kg b.i.d.): 32
- Tumor Volume ([8]; Table 3, i.p. 20 mg/kg b.i.d.): 798.3 ± 71.1^e mm^3
- % Tumor Growth Inhibition ([8]; Table 5, i.p. 20 mg/kg b.i.d.): 69%
- T/C (ratio of mean tumor volume for treated vs. vehicle control) ([8]; Table 5, i.p. 20 mg/kg b.i.d.): 34
- Tumor Volume ([8]; Table 5, i.p. 20 mg/kg b.i.d.): 752.5 ± 66.6^e mm^3
- TGD (500 mm^3) ([8]; Table 5, i.p. 20 mg/kg b.i.d., days to reach 500 mm^3): >7 days
- TGD (1000 mm^3) ([8]; Table 5, i.p. 20 mg/kg b.i.d., days to reach 1000 mm^3): >10 days
- tumor mass over the course of the experiment, in words ([8]; i.p. 20 mg/kg b.i.d., P<0.001 compared to vehicle control): significantly smaller tumor mass

SMILES: CC(C)Cc1nc(-c2ccc3[nH]nc(-c4ccc5cc(OCCN6CCCC6)ccc5c4)c3c2)n[nH]1 [CC002, 5-(5-Isobutyl-1H-[1,2,4]Triazol-3-yl)-3-[6-(2-Pyrrolidin-1-yl-Ethoxy)-Naphthalen-2-yl]-1H-Indazole]
- TGD (days to reach 1000 mm^3) [8, 10]: >12 days
- % Tumor Growth Inhibition [8, 10]: 68%
- T/C (ratio of mean tumor volume for treated vs. vehicle control) [8, 10]: 35
- Tumor Volume [8, 10]: 792.8 ± 86.5^e mm^3
- tumor volumes over the course of the experiment, in words ([8]; i.p. 20 mg/kg b.i.d. day 8-11, then qd, P<0.001 vs vehicle control): reduced tumor volumes

- Inhibitory activity (% of control), PKCμ(h) [1]: 34 % of control
- Inhibitory activity (% of control), PKD2(h) [2]: 26 % of control
SMILES: CC(C)(C)Cc1nc(-c2ccc3[nH]nc(-c4ccc5cc(OCc6ccccn6)ccc5c4)c3c2)n[nH]1 [CC004, 5-[5-(2,2-Dimethyl-propyl)-1H-[1,2,4]triazol-3-yl]-3-[6-(pyridine-2-ylmethoxy)-naphthalen-2-yl]-1H-indazole]

- Inhibitory activity (% of control), PKCμ(h) [1]: 2 % of control
- Inhibitory activity (% of control), PKD2(h) [2]: 0 % of control
SMILES: CCN1CCC[C@H]1COc1ccc2cc(-c3n[nH]c4ccc(-c5nc(CC(C)(C)C)n[nH]5)cc34)ccc2c1 [CC005, 2-[((2s)-1-ethylpyrrolidin-2-yl)methoxy]-6-{5-[3-(2,2-Dimethylpropyl)(1H-1,2,4,-triazol-5-yl)](1H-indazol-3-yl)}naphthalene]
